Paper PMC8039949, “A novel small-molecule PROTAC selectively promotes tau clearance to improve cognitive functions in Alzheimer-like models” (Theranostics, 2021)

What was measured:
MAP2 = molecular target: T1, MAP2 (Mus musculus, UniProt P20357); test: MAP2 protein level after intracerebroventricular infusion (specificity); assay type: in vivo; settings: 4 m-old wild-type and 9.5 m-old 3xTg-AD mice; intracerebroventricular 5 μL, 200 μM
T1 construct: from tissue; host or cells: hippocampus and cortex of wild-type and 3xTg-AD mice
T1 sequence (P20357 whole entry, the tested form may be a part): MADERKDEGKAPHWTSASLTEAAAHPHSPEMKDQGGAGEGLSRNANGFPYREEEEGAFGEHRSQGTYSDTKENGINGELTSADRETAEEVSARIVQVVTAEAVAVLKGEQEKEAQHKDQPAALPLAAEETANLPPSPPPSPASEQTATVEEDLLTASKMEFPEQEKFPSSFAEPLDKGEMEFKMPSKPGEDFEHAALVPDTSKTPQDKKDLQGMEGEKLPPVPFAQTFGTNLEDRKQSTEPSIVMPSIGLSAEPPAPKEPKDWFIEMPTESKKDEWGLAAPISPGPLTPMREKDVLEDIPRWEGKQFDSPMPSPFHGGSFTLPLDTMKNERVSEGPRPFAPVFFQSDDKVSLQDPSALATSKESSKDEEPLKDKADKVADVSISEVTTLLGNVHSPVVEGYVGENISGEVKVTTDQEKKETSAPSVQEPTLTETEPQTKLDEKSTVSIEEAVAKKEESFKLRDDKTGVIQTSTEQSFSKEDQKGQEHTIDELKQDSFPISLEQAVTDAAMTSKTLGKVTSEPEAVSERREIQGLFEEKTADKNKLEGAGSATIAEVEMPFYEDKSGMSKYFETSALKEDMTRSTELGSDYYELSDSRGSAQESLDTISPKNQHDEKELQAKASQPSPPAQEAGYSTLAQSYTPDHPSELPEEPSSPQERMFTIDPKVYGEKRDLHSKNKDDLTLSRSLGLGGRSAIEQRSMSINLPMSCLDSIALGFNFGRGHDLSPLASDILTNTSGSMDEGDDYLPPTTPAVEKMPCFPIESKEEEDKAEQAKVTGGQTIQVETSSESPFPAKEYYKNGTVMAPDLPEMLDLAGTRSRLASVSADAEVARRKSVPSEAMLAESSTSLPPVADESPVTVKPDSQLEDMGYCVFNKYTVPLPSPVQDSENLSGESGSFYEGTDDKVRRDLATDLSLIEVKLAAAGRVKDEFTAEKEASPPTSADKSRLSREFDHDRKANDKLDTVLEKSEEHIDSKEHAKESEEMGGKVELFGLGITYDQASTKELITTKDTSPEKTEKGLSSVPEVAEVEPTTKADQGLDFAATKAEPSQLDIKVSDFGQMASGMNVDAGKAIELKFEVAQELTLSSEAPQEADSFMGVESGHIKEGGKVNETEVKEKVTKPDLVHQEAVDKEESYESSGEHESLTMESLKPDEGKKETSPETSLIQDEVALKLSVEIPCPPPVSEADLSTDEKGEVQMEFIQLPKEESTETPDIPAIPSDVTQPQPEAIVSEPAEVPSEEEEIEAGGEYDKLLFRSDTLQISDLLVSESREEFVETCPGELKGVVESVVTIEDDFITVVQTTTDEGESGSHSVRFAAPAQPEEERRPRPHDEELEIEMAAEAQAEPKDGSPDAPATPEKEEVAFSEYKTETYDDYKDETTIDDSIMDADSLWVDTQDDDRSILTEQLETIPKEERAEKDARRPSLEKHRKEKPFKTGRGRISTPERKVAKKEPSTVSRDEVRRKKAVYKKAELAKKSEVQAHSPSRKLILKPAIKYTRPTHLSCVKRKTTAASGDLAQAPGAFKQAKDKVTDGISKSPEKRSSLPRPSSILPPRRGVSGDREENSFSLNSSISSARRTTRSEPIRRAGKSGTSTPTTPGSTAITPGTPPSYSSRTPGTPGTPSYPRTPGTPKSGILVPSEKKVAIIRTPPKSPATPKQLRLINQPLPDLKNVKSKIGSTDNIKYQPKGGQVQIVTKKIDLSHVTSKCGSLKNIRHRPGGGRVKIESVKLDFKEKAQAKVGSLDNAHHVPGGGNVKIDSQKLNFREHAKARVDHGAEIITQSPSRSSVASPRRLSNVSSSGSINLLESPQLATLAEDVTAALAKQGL
Experimental: (§1) For brain surgery and stereotaxic cerebroventricular drug delivery, the mice were placed in a stereotaxic apparatus and anesthetized with 2% isoflurane (RWD Life Science, R510-22) through a nose cone (300-500 mL/min, RWD Life Science, China, R500). The scalp was incised along the midline between the ears after the mice were sterilized with iodophors and 75% (vol/vol) alcohol. The holes were drilled stereotaxically in the skull at a cerebroventricular location (posterior 0.22 mm, lateral 0.9 mm, and ventral 2.3 mm relative to bregma). Using a microinjection system (Shenzhen RWD Life Technology Co., Ltd; RWD 69100), C004019 (5 μL, 200 μM) was infused at a rate of 0.5 μL/min. […]
(§2) The cells or hippocampal/cortex tissues were homogenized for ~ 30 min on ice in buffer [50 mM Tris·HCl pH 7.4-7.5, 100 mM NaCl, 1% (vol/vol) Triton X-100, 5 mM EDTA, 1:100 PMSF, 1:1,000 protease inhibitor cocktail containing 4-(2-Aminoethyl)-benzenesulfonyl fluoride hydrochloride, aprotinin, bestatin, leupeptin, E-64, and pepstatin A stored at 4 °C], and then centrifuged at 12,000 × g at 4 °C for 20 min. The supernatant was collected and the protein levels were analyzed using bicinchoninic acid (BCA, KF016, Sigma-Aldrich) by following the manufacturer's instruction (served as soluble protein). […] Immunoreactive bands were quantitatively analyzed by Image J2x software.

tau [1] = molecular target: tau (Mus musculus, UniProt P10637); test: Intracerebroventricular infusion in wild-type mice, brain tau by Western blotting; assay type: in vivo; settings: 4 m-old wild-type mice, intracerebroventricular 5 μL, 200 μM
Chain of tau (Mus musculus, UniProt P10637) (P10637 114-430 isoform P10637-2 limits assumed): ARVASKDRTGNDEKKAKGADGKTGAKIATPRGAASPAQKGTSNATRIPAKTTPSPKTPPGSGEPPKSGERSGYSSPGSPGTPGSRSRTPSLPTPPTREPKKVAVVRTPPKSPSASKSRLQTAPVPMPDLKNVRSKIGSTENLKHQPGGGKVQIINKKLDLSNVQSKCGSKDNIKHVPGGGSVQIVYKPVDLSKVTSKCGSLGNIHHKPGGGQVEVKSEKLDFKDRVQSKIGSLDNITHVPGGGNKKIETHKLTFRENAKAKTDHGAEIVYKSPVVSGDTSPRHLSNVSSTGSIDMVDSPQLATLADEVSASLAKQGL
Experimental: (§3) For brain surgery and stereotaxic cerebroventricular drug delivery, the mice were placed in a stereotaxic apparatus and anesthetized with 2% isoflurane (RWD Life Science, R510-22) through a nose cone (300-500 mL/min, RWD Life Science, China, R500). The scalp was incised along the midline between the ears after the mice were sterilized with iodophors and 75% (vol/vol) alcohol. The holes were drilled stereotaxically in the skull at a cerebroventricular location (posterior 0.22 mm, lateral 0.9 mm, and ventral 2.3 mm relative to bregma). Using a microinjection system (Shenzhen RWD Life Technology Co., Ltd; RWD 69100), C004019 (5 μL, 200 μM) was infused at a rate of 0.5 μL/min. The needle was kept in place for 10 min before withdrawal. After the skin was sutured, the mice were placed on a heater for analepsia. For subcutaneous injection, C004019 was diluted with 20% HP-β-CD and injected under the skin on the back neck to reach a final concentration of 3 mg/kg (low dose) or 15 mg/kg (high dose).
as §2, with “protein). The pellet was further incubated with 8% (wt/vol) SDS buffer at 4 °C and then treated by ultrasonic wave to reach a complete resuspension. The suspension was spun (18,000 × g, 4 °C for 20 min) and the supernatant collected (served as insoluble fraction). The supernatant of different faction was respectively mixed with loading buffer (3:1, vol/vol) containing 200 mM Tris-HCl, pH 6.8, 8% SDS, 40% glycerol, and boiled for 10 min.” for “protein).”

tau [2] = molecular target: T2, tau (UniProt P10636+P40338, P618L); test: Intracerebroventricular infusion in 3xTg-AD mice, brain tau by Western blotting and immunohistochemistry; assay type: in vivo, mouse; settings: 9.5 m-old 3xTg-AD mice; intracerebroventricular 5 μL, 200 μM; 48 h
T2 construct: tissue stock number 34830; host or cells: hippocampus and cortex of 9.5 m-old 3xTg-AD mice
T2 sequence (P10636 1-383 isoform P10636-6 P243L): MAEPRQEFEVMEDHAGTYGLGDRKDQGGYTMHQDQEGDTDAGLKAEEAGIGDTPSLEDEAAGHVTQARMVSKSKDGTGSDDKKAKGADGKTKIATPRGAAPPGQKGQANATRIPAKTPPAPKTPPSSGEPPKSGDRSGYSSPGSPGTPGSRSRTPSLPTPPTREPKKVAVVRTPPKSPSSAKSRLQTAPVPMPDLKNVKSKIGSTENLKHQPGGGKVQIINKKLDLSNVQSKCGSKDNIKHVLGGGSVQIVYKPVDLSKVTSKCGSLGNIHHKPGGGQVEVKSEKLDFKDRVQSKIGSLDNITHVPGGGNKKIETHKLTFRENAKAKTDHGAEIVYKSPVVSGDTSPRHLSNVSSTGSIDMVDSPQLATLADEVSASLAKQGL
T2 sequence (P40338 whole entry, the tested form may be a part): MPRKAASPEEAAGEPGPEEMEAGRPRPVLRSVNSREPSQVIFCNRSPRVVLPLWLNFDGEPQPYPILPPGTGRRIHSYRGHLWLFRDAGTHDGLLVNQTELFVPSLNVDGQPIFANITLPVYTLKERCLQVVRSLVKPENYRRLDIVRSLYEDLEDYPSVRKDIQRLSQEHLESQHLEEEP
T2 sequence (P83940 whole entry partner, the tested form may be a part): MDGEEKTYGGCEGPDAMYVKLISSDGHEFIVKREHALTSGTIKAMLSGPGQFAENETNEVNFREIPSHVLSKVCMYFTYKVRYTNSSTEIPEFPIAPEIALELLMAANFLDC
T2 sequence (P62869 whole entry partner, the tested form may be a part): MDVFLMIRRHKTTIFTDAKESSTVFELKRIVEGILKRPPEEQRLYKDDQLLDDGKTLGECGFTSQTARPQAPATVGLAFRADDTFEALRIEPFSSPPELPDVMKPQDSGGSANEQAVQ
Experimental: as §1
as §2, with “software. […]” for “software.”

tau with Vhl (E3 ligase) = molecular target: T3, tau with Vhl (E3 ligase) (Homo sapiens, UniProt P10636+P40337); test: Co-immunoprecipitation of tau with Vhl and tau ubiquitination in HEK293-hTau cells; assay type: cell-based; settings: 20 μM for 6 h
T3 construct: expressed in transfected cells; host or cells: HEK293-hTau (tau stably expressed; VHL endogenous)
T3 sequence (P10636 1-441 isoform P10636-8): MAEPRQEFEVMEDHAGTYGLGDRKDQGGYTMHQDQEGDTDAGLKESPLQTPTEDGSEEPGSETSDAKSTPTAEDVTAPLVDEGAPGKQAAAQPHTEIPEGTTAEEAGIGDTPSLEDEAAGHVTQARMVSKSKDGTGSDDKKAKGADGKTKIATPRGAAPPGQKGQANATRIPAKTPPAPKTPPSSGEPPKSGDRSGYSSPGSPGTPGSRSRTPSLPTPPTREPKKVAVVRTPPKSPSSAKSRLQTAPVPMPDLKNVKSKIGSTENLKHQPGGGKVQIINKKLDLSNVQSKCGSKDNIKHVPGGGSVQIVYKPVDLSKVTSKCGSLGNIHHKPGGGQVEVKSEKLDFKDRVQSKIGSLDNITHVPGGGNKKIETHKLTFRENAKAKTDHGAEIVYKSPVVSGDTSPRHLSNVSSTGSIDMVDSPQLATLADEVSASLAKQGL
T3 sequence (P40337 whole entry): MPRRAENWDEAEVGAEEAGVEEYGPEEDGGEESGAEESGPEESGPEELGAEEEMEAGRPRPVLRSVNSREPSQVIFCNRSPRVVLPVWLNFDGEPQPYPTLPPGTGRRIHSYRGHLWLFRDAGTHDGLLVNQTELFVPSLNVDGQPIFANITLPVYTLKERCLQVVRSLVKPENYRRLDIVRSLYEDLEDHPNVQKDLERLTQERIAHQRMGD
T3 sequence (Q15369 whole entry partner): as the sequence (P83940 whole entry partner, the tested form may be a part) above
T3 sequence (Q15370 whole entry partner): as the sequence (P62869 whole entry partner, the tested form may be a part) above, with E40D, R89C, G110S counted along it
T3 sequence (Q13617 whole entry partner): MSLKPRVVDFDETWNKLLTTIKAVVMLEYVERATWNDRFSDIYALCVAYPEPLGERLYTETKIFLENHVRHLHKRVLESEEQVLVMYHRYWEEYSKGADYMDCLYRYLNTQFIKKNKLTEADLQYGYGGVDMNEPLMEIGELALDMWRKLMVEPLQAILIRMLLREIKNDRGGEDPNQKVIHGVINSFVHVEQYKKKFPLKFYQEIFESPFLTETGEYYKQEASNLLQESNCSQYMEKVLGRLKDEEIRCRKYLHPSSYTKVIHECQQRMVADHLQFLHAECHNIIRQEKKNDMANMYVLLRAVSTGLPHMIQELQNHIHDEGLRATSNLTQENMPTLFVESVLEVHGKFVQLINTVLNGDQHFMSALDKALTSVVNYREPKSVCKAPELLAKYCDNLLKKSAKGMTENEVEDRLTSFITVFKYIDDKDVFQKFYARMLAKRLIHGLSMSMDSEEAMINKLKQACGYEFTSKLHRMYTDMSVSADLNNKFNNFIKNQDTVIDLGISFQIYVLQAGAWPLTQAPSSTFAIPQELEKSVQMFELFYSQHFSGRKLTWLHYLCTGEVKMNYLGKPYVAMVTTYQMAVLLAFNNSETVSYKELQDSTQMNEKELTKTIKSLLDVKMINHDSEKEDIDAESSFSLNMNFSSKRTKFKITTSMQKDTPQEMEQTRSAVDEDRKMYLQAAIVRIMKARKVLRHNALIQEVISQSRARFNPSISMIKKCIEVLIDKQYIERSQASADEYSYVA
T3 sequence (P62877 whole entry partner): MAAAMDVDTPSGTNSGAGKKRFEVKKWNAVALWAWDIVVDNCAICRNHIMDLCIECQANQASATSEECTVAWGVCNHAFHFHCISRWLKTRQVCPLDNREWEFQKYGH
Experimental: Cell lysates were centrifuged at 12,000 g for 20 min at 4 °C and the supernatant were incubated with protein G agarose beads (Millipore, 16-266), pre-washed with cold PBS for 1 h at 4 °C to remove non-specific proteins. After centrifuged (14,000 g) at 4 °C for 15 min, the supernatant was collected and protein concentration was measured by BCA assay. The supernatant was sequentially incubated with primary antibodies (2 μg/100 μg) overnight at 4 °C with rotating in the first day and protein G agarose beads (20 μL/100 μL) the next day. After spin (6,000 g) for 2 min at 4 °C, the pellets were collected, washed with precooled washing buffer for 3 times, resuspended in buffer (50 mM Tris-HCl, pH 6.8, 2% SDS, 10% glycerol), boiled for 10 min, and analyzed by Western blotting.

tau [3] = test: Multiple-doses subcutaneous administration in hTau transgenic mice, brain tau; assay type: in vivo, mouse; settings: 12 m-old hTau transgenic mice, subcutaneous 3 mg/kg once every 6 days, 5 times
Experimental: as §3
as §2, with “protein). The pellet was further incubated with 8% (wt/vol) SDS buffer at 4 °C and then treated by ultrasonic wave to reach a complete resuspension. The suspension was spun (18,000 × g, 4 °C for 20 min) and the supernatant collected (served as insoluble fraction). The supernatant of different faction was respectively mixed with loading buffer (3:1, vol/vol) containing 200 mM Tris-HCl, pH 6.8, 8% SDS, 40% glycerol, and boiled for 10 min.” for “protein).”, “software. […]” for “software.”

## CC(=O)N1CCCN(c2nc(NCCc3cccs3)nc(N(C)CC(=O)NCCOCCOCCOCC(=O)N[C@H](C(=O)N3C[C@H](O)C[C@H]3C(=O)NCc3ccc(-c4scnc4C)cc3)C(C)(C)C)n2)CC1 [C004019]
MAP2
  protein level of MAP2: did not change the level of MAP2
Tau [1]; 24 h
  hippocampal tau level: most remarkable hippocampal tau reduction
Tau [1]; 24 h and 48 h
  brain cortex tau level: significant reduction of tau was only detected at 48 h but not 24 h
Tau [1]; 48 h
  hippocampal tau level: still very significant
Tau [2]
  total tau and p-tau levels in hippocampus and cortex: reduced total tau and the p-tau levels
Tau with Vhl (E3 ligase)
  ubiquitination level of tau: significantly increased the ubiquitination level of tau
Tau [3]
  p-tau and tau aggregation (HT7, AT8 immunohistochemistry, Thioflavin S staining): Reduction of p-tau and tau aggregation
Tau [3]; Western blotting
  soluble and insoluble tau in cortex extracts: could reduce both soluble and insoluble tau
  total and p-tau levels in hippocampal extracts: significantly reduced total and p-tau levels
